In article PMC9085577, “Discovery of a Potent and Orally Active Dual GPBAR1/CysLT1R Modulator for the Treatment of Metabolic Fatty Liver Disease” (Frontiers in Pharmacology, 2022):

Tested on: liver transcriptome
Experiment: AmpliSeq liver transcriptome of HFD-F mice
Format: in vivo
Details: liver
Description: C57BL/6J male mice were fed a high fat diet (HFD) containing 59 KJ% fat plus 1% cholesterol, w/o sugar (ssniff ® EF R/M acc. D12330 mod. 22,7 ME/kg) and fructose (HFD-F) in drinking water (42 g/L), or normal chow diet for 61 days. Food intake was estimated as the difference of weight between the offered and the remnant amount of food at 3-days intervals. The food was provided as pressed pellets and the residual spillage was not considered. After 7 days, HFD-F mice were randomized to receive HFD-F alone or in combination with compound 2 (30 mg/kg/day) by gavage until the end of the experiment. Doses of each agent were chosen according to previously published data. Mice were housed under controlled temperature (22°C) and photoperiods (12:12-h light/dark cycle), allowed unrestricted access to standard mouse chow and tap water. The experimental protocol was approved by the Animal Care and Use Committee of the University of Perugia and by the Italian Minister of Health and Istituto Superiore di Sanità (Italy) and was in agreement with the European guidelines for use of experimental animals (permission n. 583/2017-PR). The general health of the animals was monitored daily by the Veterinarian in the animal facility. At the day of sacrifice, fed mice were deeply anesthetized with a mixture of tiletamine hypochloride and zolazepam hypochloride/xylazine at a dose of 50/5 mg/kg and sacrificed before 12 a.m.
High-quality RNA was extracted from mice livers, using the Direct-zol™ RNA MiniPrep w/Zymo-Spin™ IIC Columns (Zymo Research, Irvine, CA) according to the manufacturer’s instructions. RNA quality and quantity were assessed with the Qubit® RNA HS Assay Kit and a Qubit 3.0 fluorometer (Invitrogen, Carlsbad, CA) followed by agarose gel electrophoresis. Libraries were generated using the Ion AmpliSeq™ Transcriptome Mouse Gene Expression Core Panel and Chef-Ready Kit (Comprehensive evaluation of AmpliSeq transcriptome, a whole transcriptome RNA sequencing methodology) (Thermo Fisher Scientific, Waltham, MA). Briefly, 10 ng of RNA was reverse transcribed with SuperScript™ Vilo™ cDNA Synthesis Kit (Thermo Fisher Scientific, Waltham, MA) before library preparation on the Ion Chef™ instrument (Thermo Fisher Scientific, Waltham, MA). The resulting cDNA was amplified to prepare barcoded libraries using the Ion Code™ PCR Plate, and the Ion AmpliSeq™ Transcriptome Mouse Gene Expression Core Panel (Thermo Fisher Scientific, Waltham, MA), Chef-Ready Kit, according to the manufacturer’s instructions. Barcoded libraries were combined to a final concentration of 100 p.m., and used to prepare Template-Positive Ion Sphere™ (Thermo Fisher Scientific, Waltham, MA) Particles to load on Ion 540™ Chips, using the Ion 540™ Kit-Chef (Thermo Fisher Scientific, Waltham, MA). Sequencing was performed on an Ion S5™ Sequencer with Torrent Suite™ Software v6 (Thermo Fisher Scientific, Waltham, MA). The analyses were performed with a range of fold <−2 and >+2 and a p value <0.05, using Transcriptome Analysis Console Software (version 4.0.1), certified for AmpliSeq analysis (Thermo-Fisher). The transcriptomic data have been deposited as dataset on Mendeley data repository (reference number linking to the repository: Fiorucci, Stefano; Biagioli, Michele; Marchianò, Silvia; Di Giorgio, Cristina (2021), “Discovery of potent dual GPBAR1/CysLT1R modulator for the treatment of metabolic fatty liver disease,” Mendeley Data, V1, doi: 10.17632/6dnrk9fc72.1).

O=C(O)c1cccc(-c2ccc(OCc3ccc4ccccc4n3)cc2)c1 [Compound 2, 4'-(quinolin-2-ylmethoxy)-[1,1′-biphenyl]-3-carboxylic acid]
Gdf15 transcript Avg (log2) (HFD + compound 2): 3.91 log2
Glipr1 transcript Avg (log2) (HFD + compound 2): 0.71 log2
Glipr2 transcript Avg (log2) (HFD + compound 2): 1.26 log2
Gm16063 transcript Avg (log2) (HFD + compound 2): 1.79 log2
Gm30692 transcript Avg (log2) (HFD + compound 2): 0.5 log2
Gm31555 transcript Avg (log2) (HFD + compound 2): 1.31 log2
Gm31649 transcript Avg (log2) (HFD + compound 2): 2.75 log2
Gm36796 transcript Avg (log2) (HFD + compound 2): 1.53 log2
Gnat1 transcript Avg (log2) (HFD + compound 2): 3.01 log2
Gngt1 transcript Avg (log2) (HFD + compound 2): 1.67 log2
Gpnmb transcript Avg (log2) (HFD + compound 2): 0.3 log2
Hnf4aos transcript Avg (log2) (HFD + compound 2): 3.75 log2
Hnrnpa0 transcript Avg (log2) (HFD + compound 2): 2.3 log2
Hspa5 transcript Avg (log2) (HFD + compound 2): 8.51 log2
Igip transcript Avg (log2) (HFD + compound 2): 2.38 log2
Il1b transcript Avg (log2) (HFD + compound 2): 1.8 log2
Il1rn transcript Avg (log2) (HFD + compound 2): 1.01 log2
Insig2 transcript Avg (log2) (HFD + compound 2): 5.39 log2
Itgam transcript Avg (log2) (HFD + compound 2): 0.58 log2
Kif20a transcript Avg (log2) (HFD + compound 2): 1.39 log2
LOC108167447 transcript Avg (log2) (HFD + compound 2): 2.05 log2
LOC108168323 transcript Avg (log2) (HFD + compound 2): 1.86 log2
Lactb2 transcript Avg (log2) (HFD + compound 2): 3.85 log2
Ly6d transcript Avg (log2) (HFD + compound 2): 1.72 log2
Meg3 transcript Avg (log2) (HFD + compound 2): 4.04 log2
Mettl9 transcript Avg (log2) (HFD + compound 2): 4.9 log2
Mki67 transcript Avg (log2) (HFD + compound 2): 1.5 log2
Mogat1 transcript Avg (log2) (HFD + compound 2): 2.35 log2
Mthfd2 transcript Avg (log2) (HFD + compound 2): 1.97 log2
Mvd transcript Avg (log2) (HFD + compound 2): 1.98 log2
Nat8 transcript Avg (log2) (HFD + compound 2): 3.26 log2
Neat1 transcript Avg (log2) (HFD + compound 2): 7.09 log2
Npas2 transcript Avg (log2) (HFD + compound 2): 0.62 log2
Nr4a1 transcript Avg (log2) (HFD + compound 2): 3.27 log2
Nrep transcript Avg (log2) (HFD + compound 2): 6.14 log2
Nuak2 transcript Avg (log2) (HFD + compound 2): 5.66 log2
Pcbp1 transcript Avg (log2) (HFD + compound 2): 2.29 log2
Pcp4l1 transcript Avg (log2) (HFD + compound 2): 3.46 log2
Pdilt transcript Avg (log2) (HFD + compound 2): 4.25 log2
Pdpn transcript Avg (log2) (HFD + compound 2): 0.96 log2
Per3 transcript Avg (log2) (HFD + compound 2): 5.27 log2
Plau transcript Avg (log2) (HFD + compound 2): 1.27 log2
Plaur transcript Avg (log2) (HFD + compound 2): 1.66 log2
Pld6 transcript Avg (log2) (HFD + compound 2): 4.01 log2
Plekhg3 transcript Avg (log2) (HFD + compound 2): 6.24 log2
Plxnc1 transcript Avg (log2) (HFD + compound 2): 2.12 log2
Pnpla3 transcript Avg (log2) (HFD + compound 2): 4 log2
Podn transcript Avg (log2) (HFD + compound 2): 3.56 log2
Ppp1r3c transcript Avg (log2) (HFD + compound 2): 4.08 log2
Prox1 transcript Avg (log2) (HFD + compound 2): 7.62 log2
Psat1 transcript Avg (log2) (HFD + compound 2): 0.72 log2
Ptgs2 transcript Avg (log2) (HFD + compound 2): 0.21 log2
Raet1e transcript Avg (log2) (HFD + compound 2): 1.49 log2
Raet1d transcript Avg (log2) (HFD + compound 2): 2.83 log2
Ralbp1 transcript Avg (log2) (HFD + compound 2): 3.21 log2
Rhob transcript Avg (log2) (HFD + compound 2): 3.81 log2
Rrs1 transcript Avg (log2) (HFD + compound 2): 1.59 log2
Saa4 transcript Avg (log2) (HFD + compound 2): 9.44 log2
Sart3 transcript Avg (log2) (HFD + compound 2): 4.81 log2
Sbk1 transcript Avg (log2) (HFD + compound 2): 4.33 log2
Sec11c transcript Avg (log2) (HFD + compound 2): 3.53 log2
Senp1 transcript Avg (log2) (HFD + compound 2): 3.87 log2
Serpina7 transcript Avg (log2) (HFD + compound 2): 4.57 log2
Serpine1 transcript Avg (log2) (HFD + compound 2): 2.19 log2
Slc16a1 transcript Avg (log2) (HFD + compound 2): 2.98 log2
Slc17a8 transcript Avg (log2) (HFD + compound 2): 2.05 log2
Slc39a8 transcript Avg (log2) (HFD + compound 2): 3.52 log2
Slc40a1 transcript Avg (log2) (HFD + compound 2): 3.94 log2
Slc46a3 transcript Avg (log2) (HFD + compound 2): 4.69 log2
Spon2 transcript Avg (log2) (HFD + compound 2): 1.99 log2
Sqle transcript Avg (log2) (HFD-F + compound 2): 1.02 log2
Stfa3 transcript Avg (log2) (HFD-F + compound 2): 0 log2
Taok3 transcript Avg (log2) (HFD-F + compound 2): 6.27 log2
Tk1 transcript Avg (log2) (HFD-F + compound 2): 5.13 log2
Tmx1 transcript Avg (log2) (HFD-F + compound 2): 5.44 log2
Tnf transcript Avg (log2) (HFD-F + compound 2): 0.14 log2
Tnfrsf23 transcript Avg (log2) (HFD-F + compound 2): 0.63 log2
Tnnc1 transcript Avg (log2) (HFD-F + compound 2): 1.54 log2
Tsku transcript Avg (log2) (HFD-F + compound 2): 4.72 log2
Ubqln2 transcript Avg (log2) (HFD-F + compound 2): 2.22 log2
